Source: patent publication US8859580B2 (Boehringer Ingelheim International GmbH, priority 2007, dated 2014)

target: T1, 11β-HSD1 (Homo sapiens, UniProt P28845); assay: In vitro inhibition of 11β-HSD1, HTRF detection of cortisol generated from cortisone by human liver microsomes; type: biochemical; conditions: 11β-HSD IC50 (nM), 1 hour at 37° C., pH 6.0, NADPH 200 μM, cortisone 80 nM, inhibition relative to carbenoxolone signal
T1 construct: detecting cortisol generated from cortisterone by human liver microsomes; from tissue; host or cells: human liver microsomes
Procedure: Cortisol generated in the reaction is then detected with a competitive immunoassay, involving two HTRF conjugates: cortisol linked to XL665 and anti-cortisol antibody labeled with Europium cryptate. The incubation period for detection reaction was typically 2 hours. […] The ratio of the two emission signals is then calculated (Em665*10000/Em615). […] Each assay also contained a calibration curve with cortisol to transform the fluorescent data into cortisol concentrations. Percent inhibition of each compound was determined relative to the carbenoxolone signal and IC50 curves were generated.

T1 sequence (P28845 whole entry): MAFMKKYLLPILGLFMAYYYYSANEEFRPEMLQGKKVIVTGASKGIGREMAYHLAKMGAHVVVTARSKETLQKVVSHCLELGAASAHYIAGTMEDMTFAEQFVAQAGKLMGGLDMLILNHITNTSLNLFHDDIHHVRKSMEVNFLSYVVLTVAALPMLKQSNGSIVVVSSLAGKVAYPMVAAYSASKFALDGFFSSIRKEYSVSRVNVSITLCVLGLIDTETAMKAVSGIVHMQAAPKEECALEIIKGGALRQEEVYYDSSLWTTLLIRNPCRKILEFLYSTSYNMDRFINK

Going from COc1ccc(C(=O)N2CC[C@@]3(C)c4cccc(O)c4C[C@@H]2C3(C)C)cc1 [Example 14, [(2R,6S)-10-Hydroxy-6,11,11-trimethyl-1,2,5,6-tetrahydro-4H-2,6-methano-benzo[d]azocin-3-yl]-(4-methoxy-phenyl)-methanone] to CC(=O)c1ccc(C(=O)N2CC[C@@]3(C)c4cccc(O)c4C[C@@H]2C3(C)C)cc1 [Example 28, 1-{4-[(2R,6S)-10-Hydroxy-6,11,11-trimethyl-1,2,5,6-tetrahydro-4H-2,6-methano-benzo[d]azocine-3-carbonyl]-phenyl}-ethanone], the IC50 rises from 734 nM to 3680 nM (5-fold). The first is the more potent here.

First: CC(=O)Nc1ccc(C(=O)N2CC[C@@]3(C)c4cccc(O)c4C[C@@H]2C3(C)C)cc1 [Example 15, N-{4-[(2R,6S)-10-Hydroxy-6,11,11-trimethyl-1,2,5,6-tetrahydro-4H-2,6-methano-benzo[d]azocine-3-carbonyl]-phenyl}-acetamide]
Second: CNC(=O)c1ccc(C(=O)N2CC[C@@]3(C)c4cccc(O)c4C[C@@H]2C3(C)C)cc1 [Example 36, 4-[(2R,6S)-10-Hydroxy-6,11,11-trimethyl-1,2,5,6-tetrahydro-4H-2,6-methano-benzo[d]azocine-3-carbonyl]-N-methyl-benzamide]
The IC50 of the first is 10-fold lower: 354 nM for the first, 3660 nM for the second. The first is the more potent here.

First: CC(O)(c1ccc(C(=O)N2CC[C@@]3(C)c4cccc(O)c4C[C@@H]2C3(C)C)cc1)C(F)(F)F (stereo partly drawn) [Example 16, [(2R,6S)-10-Hydroxy-6,11,11-trimethyl-1,2,5,6-tetrahydro-4H-2,6-methano-benzo[d]azocin-3-yl]-[4-(2,2,2-trifluoro-1-hydroxy-1-methyl-ethyl)-phenyl]-methanone]
Second: CN(C)C(=O)c1ccc(C(=O)N2CC[C@@]3(C)c4cccc(O)c4C[C@@H]2C3(C)C)cc1 [Example 37, 4-[(2R,6S)-10-Hydroxy-6,11,11-trimethyl-1,2,5,6-tetrahydro-4H-2,6-methano-benzo[d]azocine-3-carbonyl]-N,N-dimethyl-benzamide]
The IC50 of the first is 2.8-fold lower: 360 nM for the first, 998 nM for the second.

Compared with Cc1nc2ccc(C(=O)N3CC[C@@]4(C)c5cccc(O)c5C[C@@H]3C4(C)C)cc2[nH]1 [Example 17, [(2R,6S)-10-Hydroxy-6,11,11-trimethyl-1,2,5,6-tetrahydro-4H-2,6-methano-benzo[d]azocin-3-yl]-(2-methyl-3H-benzoimidazol-5-yl)-methanone], Cc1nc2cc(C(=O)N3CC[C@@]4(C)c5cccc(O)c5C[C@@H]3C4(C)C)ccc2c(=O)[nH]1 [Example 34, 7-[(2R,6S)-10-Hydroxy-6,11,11-trimethyl-1,2,5,6-tetrahydro-4H-2,6-methano-benzo[d]azocine-3-carbonyl]-2-methyl-3H-quinazolin-4-one] is 2.8-fold higher in IC50: 1380 nM for the first, 3880 nM for the second.

First: CC1(C)[C@H]2Cc3c(O)cccc3[C@]1(C)CCN2C(=O)c1cccc2[nH]cnc12 [Example 18, (1H-Benzoimidazol-4-yl)-[(2R,6S)-10-hydroxy-6,11,11-trimethyl-1,2,5,6-tetrahydro-4H-2,6-methano-benzo[d]azocin-3-yl]-methanone]
Second: CC1(C)[C@H]2Cc3c(O)cccc3[C@]1(C)CCN2C(=O)c1ccc2cc[nH]c2c1 [Example 31, [(2R,6S)-10-Hydroxy-6,11,11-trimethyl-1,2,5,6-tetrahydro-4H-2,6-methano-benzo[d]azocin-3-yl]-(1H-indol-6-yl)-methanone]
The IC50 of the first is 42-fold higher: 3680 nM for the first, 88 nM for the second. The second is the more potent here.

Going from Cn1cnc2cc(C(=O)N3CC[C@@]4(C)c5cccc(O)c5C[C@@H]3C4(C)C)ccc21 [Example 19, [(2R,6S)-10-Hydroxy-6,11,11-trimethyl-1,2,5,6-tetrahydro-4H-2,6-methano-benzo[d]azocin-3-yl]-(1-methyl-1H-benzoimidazol-5-yl)-methanone] to Cn1c(=O)[nH]c2cc(C(=O)N3CC[C@@]4(C)c5cccc(O)c5C[C@@H]3C4(C)C)ccc21 [Example 29, 5-[(2R,6S)-10-Hydroxy-6,11,11-trimethyl-1,2,5,6-tetrahydro-4H-2,6-methano-benzo[d]azocine-3-carbonyl]-1-methyl-1,3-dihydro-benzoimidazol-2-one], the IC50 rises from 658 nM to 1730 nM (2.6-fold). The first is the more potent here.

First: CC1(C)[C@H]2Cc3c(O)cccc3[C@]1(C)CCN2C(=O)c1ccc2c(c1)OCCO2 [Example 20, (2,3-Dihydro-benzo[1,4]dioxin-6-yl)-[(2R,6S)-10-hydroxy-6,11,11-trimethyl-1,2,5,6-tetrahydro-4H-2,6-methano-benzo[d]azocin-3-yl]-methanone]
Second: CC1(C)[C@H]2Cc3c(O)cccc3[C@]1(C)CCN2C(=O)c1ccc2c(c1)NC(=O)C2 [Example 33, 6-[(2R,6S)-10-Hydroxy-6,11,11-trimethyl 1,2,5,6-tetrahydro-4H-2,6-methano-benzo[d]azocine-3-carbonyl]-1,3-dihydro-indol-2-one]
The IC50 of the first is 14-fold lower: 254 nM for the first, 3490 nM for the second. The first is the more potent here.

CC1(C)[C@H]2Cc3c(O)cccc3[C@]1(C)CCN2C(=O)c1ccc2nn[nH]c2c1 [Example 21, (3H-Benzotriazol-5-yl)-[(2R,6S)-10-hydroxy-6,11,11-trimethyl-1,2,5,6-tetrahydro-4H-2,6-methano-benzo[d]azocin-3-yl]-methanone] and CC1(C)[C@H]2Cc3c(O)cccc3[C@]1(C)CCN2C(=O)c1cccc(C(N)=O)c1 [Example 41, 3-[(2R,6S)-10-Hydroxy-6,11,11-trimethyl-1,2,5,6-tetrahydro-4H-2,6-methano-benzo[d]azocine-3-carbonyl]-benzamide] are within 1.5-fold of each other in IC50: 669 nM for the first, 589 nM for the second.

Going from CC1(C)[C@H]2Cc3c(O)cccc3[C@]1(C)CCN2C(=O)c1ccc(CN2CCCCC2)cc1 [Example 22, [(2R,6S)-10-Hydroxy-6,11,11-trimethyl-1,2,5,6-tetrahydro-4H-2,6-methano-benzo[d]azocin-3-yl]-(4-piperidin-1-ylmethyl-phenyl)-methanone] to CC1(C)[C@H]2Cc3c(O)cccc3[C@]1(C)CCN2C(=O)c1ccc(CN2CCOCC2)cc1 [Example 24, [(2R,6S)-10-Hydroxy-6,11,11-trimethyl-1,2,5,6-tetrahydro-4H-2,6-methano-benzo[d]azocin-3-yl]-(4-morpholin-4-ylmethyl-phenyl)-methanone], the IC50 falls from 5040 nM to 134 nM (38-fold).

Compared with CC1(C)[C@H]2Cc3c(O)cccc3[C@]1(C)CCN2C(=O)c1ccc(N2CCOCC2)cc1 [Example 25, [(2R,6S)-10-Hydroxy-6,11,11-trimethyl-1,2,5,6-tetrahydro-4H-2,6-methano-benzo[d]azocin-3-yl]-(4-morpholin-4-yl-phenyl)-methanone], CC1(C)[C@H]2Cc3c(O)cccc3[C@]1(C)CCN2C(=O)c1ccc(N2CCNCC2)cc1 [Example 26, [(2R,6S)-10-Hydroxy-6,11,11-trimethyl-1,2,5,6-tetrahydro-4H-2,6-methano-benzo[d]azocin-3-yl]-(4-piperazin-1-yl-phenyl)-methanone] is 4.2-fold higher in IC50: 686 nM for the first, 2890 nM for the second.

First: CC(=O)Nc1ccc(C(=O)N2CC[C@@]3(C)c4cccc(O)c4C[C@@H]2C3(C)C)cc1F [Example 27, N-{2-Fluoro-4-[(2R,6S)-10-hydroxy-6,11,11-trimethyl-1,2,5,6-tetrahydro-4H-2,6-methano-benzo[d]azocine-3-carbonyl]-phenyl}-acetamide]
Second: COC(=O)c1cccc(C(=O)N2CC[C@@]3(C)c4cccc(O)c4C[C@@H]2C3(C)C)c1 [Example 30, 3-[(2R,6S)-10-Hydroxy-6,11,11-trimethyl-1,2,5,6-tetrahydro-4H-2,6-methano-benzo[d]azocine-3-carbonyl]-benzoic acid methyl ester]
The IC50 of the first is 2.2-fold lower: 629 nM for the first, 1400 nM for the second. The first is the more potent here.

C#Cc1cc(C(=O)N2CC[C@@]3(C)c4cccc(O)c4C[C@@H]2C3(C)C)ccc1C(=O)N1CCCC1 [Example 32, [3-Ethynyl-4-(pyrrolidine-1-carbonyl)-phenyl]-[(2R,6S)-10-hydroxy-6,11,11-trimethyl-1,2,5,6-tetrahydro-4H-2,6-methano-benzo[d]azocin-3-yl]-methanone] and Cc1cc(C(=O)N2CC[C@@]3(C)c4cccc(O)c4C[C@@H]2C3(C)C)ccc1C(=O)N1CCCC1 [Example 35, [(2R,6S)-10-Hydroxy-6,11,11-trimethyl-1,2,5,6-tetrahydro-4H-2,6-methano-benzo[d]azocin-3-yl]-[3-methyl-4-(pyrrolidine-1-carbonyl)-phenyl]-methanone] are within 1.5-fold of each other in IC50: 915 nM for the first, 672 nM for the second.

CN(C)C(=O)c1cccc(C(=O)N2CC[C@@]3(C)c4cccc(O)c4C[C@@H]2C3(C)C)c1 [Example 38, 3-[(2R,6S)-10-Hydroxy-6,11,11-trimethyl-1,2,5,6-tetrahydro-4H-2,6-methano-benzo[d]azocine-3-carbonyl]-N,N-dimethyl-benzamide] and CNC(=O)c1cccc(C(=O)N2CC[C@@]3(C)c4cccc(O)c4C[C@@H]2C3(C)C)c1 [Example 39, 3-[(2R,6S)-10-Hydroxy-6,11,11-trimethyl-1,2,5,6-tetrahydro-4H-2,6-methano-benzo[d]azocine-3-carbonyl]-N-methyl-benzamide] are within 1.5-fold of each other in IC50: 1440 nM for the first, 1590 nM for the second.

First: COC[C@H]1CCCN1C(=O)c1cccc(C(=O)N2CC[C@@]3(C)c4cccc(O)c4C[C@@H]2C3(C)C)c1 [Example 40, [(2R,6S)-10-Hydroxy-6,11,11-trimethyl-1,2,5,6-tetrahydro-4H-2,6-methano-benzo[d]azocin-3-yl]-[3-((R)-2-methoxymethyl-pyrrolidine-1-carbonyl)-phenyl]-methanone]
Second: COC(=O)c1cc(Cl)cc(C(=O)N2CC[C@@]3(C)c4cccc(O)c4C[C@@H]2C3(C)C)c1 [Example 42, 3-Chloro-5-[(2R,6S)-10-hydroxy-6,11,11-trimethyl-1,2,5,6-tetrahydro-4H-2,6-methano-benzo[d]azocine-3-carbonyl]-benzoic acid methyl ester]
The IC50 of the first is 8.4-fold lower: 542 nM for the first, 4530 nM for the second. The first is the more potent here.

For COC(=O)c1cc(F)cc(C(=O)N2CC[C@@]3(C)c4cccc(O)c4C[C@@H]2C3(C)C)c1 [Example 43, 3-Fluoro-5-[(2R,6S)-10-hydroxy-6,11,11-trimethyl-1,2,5,6-tetrahydro-4H-2,6-methano-benzo[d]azocine-3-carbonyl]-benzoic acid methyl ester], the IC50 was 1760 nM.
